For one data set, the system named is Sordaria fimicola. As to the kind of experiment: Antifungal activity against Sordaria fimicola NRRL 6460 assessed as hyphal morphological changes. Type of data set: functional, organism-based.
In another data set the test system is Ascobolus. In words: Antifungal activity against sAscobolus furfuraceus NRRL 6459 assessed as hyphal morphological changes. Type of data set: functional, organism-based.
A short description of data set [1]: Toxicity in brine shrimp. The format is organism-based. The conditions noted are these: artemia, in vivo.

≈ marks a conversion by molar mass, not a printed value.

For `COc1cc(C)c(Oc2cc(C)cc(O)c2)c(O)c1` [CYPERIN], in the data set with Sordaria fimicola, the IC50 came to 50 µg/mL (≈ 192 µM) and the MIC was found to be 75 µg/mL (≈ 288 µM). In the data set with Ascobolus, the IC50 is 100 µg/mL (≈ 384 µM) and the MIC turned out to be 250 µg/mL (≈ 960 µM). In data set [1], this compound registered an LC50 of 125 µg/mL (≈ 480 µM).

For the origin of these results see ChEMBL document CHEMBL1151109, “Interference Competition Among Natural Fungal Competitors: an Antifungal Metabolite from the Coprophilous Fungus Preussia fleischhakii” (J Nat Prod, 1988).
